O=c1cc(-c2ccc(O)c(O)c2)oc2cc(O)cc(O)c12
solubility (mole fraction)
Details	298.2 K	303.2 K	308.2 K	313.2 K	318.2 K
in DMSO	0.0515	0.0564	0.0615	0.0665	0.0715
in ethanol	0.00188	0.00209	0.00241	0.00273	0.00308
in ethyl acetate	0.00261	0.00313	0.00368	0.00438	0.00511
in ethylene glycol	0.0013	0.00158	0.0019	0.00229	0.00268
in isopropanol	0.00251	0.00278	0.00316	0.00366	0.00414
in methanol	0.00047	0.000537	0.000638	0.000727	0.000816
in n-butanol	0.00335	0.00369	0.00415	0.00477	0.00536
in propylene glycol	0.00212	0.00249	0.00289	0.00336	0.00389
in sec-butanol	0.0035	0.00381	0.00435	0.00489	0.00553
in transcutol	0.0309	0.0331	0.0354	0.0378	0.0401
in water	1.75e-06	2.24e-06	2.83e-06	3.49e-06	4.17e-06

Details	solubility (mole fraction)
in PEG-400, 298.2 K	0.1
in PEG-400, 303.2 K	0.106
in PEG-400, 308.2 K	0.113
in PEG-400, 313.2 K	0.119
in PEG-400, 318.2 K	0.127

Source: BigSolDB 2.1
